Biological target: T1, COX-2 (Homo sapiens, UniProt P35354)
T1 construct: treated with 100 nM (nmol/l) phorbol 12-myristate 13-acetate for 6 h at 37° C. to induce COX-2 isoenzyme; endogenous in cells; host or cells: HUV-EC-C (ATCC CRL1730), PMA-induced
T1 sequence (P35354 18-604): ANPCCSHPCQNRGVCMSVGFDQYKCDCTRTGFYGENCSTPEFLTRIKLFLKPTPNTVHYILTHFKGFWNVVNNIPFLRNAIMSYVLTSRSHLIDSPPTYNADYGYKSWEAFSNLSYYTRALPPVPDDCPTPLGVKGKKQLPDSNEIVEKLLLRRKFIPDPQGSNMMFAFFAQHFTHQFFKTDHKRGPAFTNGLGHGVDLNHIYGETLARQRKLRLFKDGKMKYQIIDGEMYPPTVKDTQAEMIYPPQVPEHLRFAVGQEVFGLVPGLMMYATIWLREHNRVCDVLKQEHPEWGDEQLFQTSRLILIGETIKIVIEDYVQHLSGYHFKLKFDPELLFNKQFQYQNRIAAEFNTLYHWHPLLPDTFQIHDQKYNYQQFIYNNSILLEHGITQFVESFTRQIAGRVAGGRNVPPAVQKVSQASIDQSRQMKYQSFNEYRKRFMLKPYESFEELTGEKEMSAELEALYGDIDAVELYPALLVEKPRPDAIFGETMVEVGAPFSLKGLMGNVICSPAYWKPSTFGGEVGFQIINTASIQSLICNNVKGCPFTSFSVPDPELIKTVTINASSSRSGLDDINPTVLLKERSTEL
Test: COX-2 screening in PMA-induced HUV-EC-C cells (Prostaglandine-E2 production by RIA)
Format: cell-based
Experimental: HUV-EC-C cells (a permanent endothelial cell line derived from the vein of a normal human umbilical cord; ATCC CRL1730; M. Miralpeix, M. Camacho et al., Brit. J. Pharmacol. 121 (1997), 171-180), were seeded onto 96-well plates (RPMI 1640+10% FCS) and treated with 100 nM (nmol/l) phorbol 12-myristate 13-acetate for 6 h at 37° C. to induce COX-2 isoenzyme. 50 μM (μmol/l) arachidonic acid were then added and the cells were incubated in the presence of test compounds or mixtures for 30 min at 37° C. Prostaglandine-E2 production was measured by radioimmuno assay (RIA) and the radioactivity determined with a scintillation counter (Topcount, Packard) using a liquid scintillation cocktail (Packard).
The results obtained are expressed as a percent of control values and as a percent inhibition of control values obtained in the presence of the test compounds. The control values correspond to the COX-2 activity of HUV-EC-C cells after stimulation with Phorbol Myristate Acetate (PMA) during 6 hours at 37° C. (can be done also with Tumor Necrosis Factor type alpha: TNFα) in absence of test compound.
The concentration causing a half-maximal inhibition of control values (IC50 value) and Hill coefficients (nH) were determined for the reference compounds (cycloheximide) by nonlinear regression analysis of their inhibition curves. These parameters were obtained by Hill equation curve fitting. […]

cyclooxygenase-2 inhibiting activity (in words): no effect
SMILES: N[C@@H](CS)C(=O)O [Cysteine]

Reference: US20070110818A1, “Milk fractions and milk preparations for treating and/or preventing cox-2 mediated diseases” (priority 2003, published 2007)
